The record followed here is patent US5049372A, “Anticancer activities in a host by increasing blood and plasma adenosine 5'-triphosphate (ATP) levels” (priority 1988, dated 1991).

“Also recorded” adds a separate entry of the source.

Data set [1] in a line: ATP levels in mouse blood (total cellular) and plasma after i.p. injection (Table 3). It counts as in vivo. Conditions: for Blood ATP levels: total cellular. The method, then: The mice are anesthetized with ether during the procedure. The plasma is prepared by immediate centrifugation of the blood in a Beckman microfuge (30 sec at 8000 xg). Blood (20 μl) or plasma (100 μl) aliquots are added to 1 ml of cold 7% trichloroacetic acid. […] The determination of ATP levels in the extracts is performed by bioluminometry (luciferinluciferase) using a Turner Designs Bioluminescence Photometer.

Data set [2] concerns RBC ATP pools. The experiment in a line: Expansion of RBC ATP pools and blood plasma ATP levels after i.p. injection (Table 4). It counts as in vivo, mouse. Conditions: for Plasma ATP levels / RBC ATP pools / Plasma [^3 ]ATP levels immediately after [^3 H]adenosine incorporation into whole blood: 5 hours after i.p. injection of 2 ml of 35 mM, CB6F1; for Plasma ATP levels / RBC ATP pools: bioluminometry, citrate-dextrose; for Plasma [^3 ]ATP levels immediately after [^3 H]adenosine incorporation into whole blood: radioactivity corrected by RBC specific radioactivity; for Duration of expansion of RBC ATP pools: after complete adsorption across the peritoneal membrane; for Time at which expansion of RBC ATP pools could be detected: after i.p. injection; for Increase in plasma (extracellular) ATP levels (in words): i.p. administration; for Expansion of RBC ATP pools (in words): i.p. injection, host animals. The method, then: The mice are anesthetized with ether during the procedure. Plasma or Hanks' (Balanced Salt Solution) BSS media from incubated isolated RBCs (Red Blood Cells) are prepared by centrifugation of whole blood or RBCs in a Beckman microfuge (30 seconds at 8000 xg) and samples of 100 μl are added to 1 ml of ice-cold 7% trichloroacetic acid. Red blood cells are prepared by centrifugation of whole blood (1500 xg for 5 minutes at 4° C.) and removal of plasma and the buffy coat is followed by a wash of the pelleted RBCs (from 250 μl of whole blood) in 5 ml of ice-cold Hanks' BSS. After centrifugations, the RBCs pellet is resuspended in Hanks' BSS to yield a total volume with the original hematocrit (percent of RBCs volume in the whole blood). Aliquots of 20 μl of RBCs suspensions or whole blood are added to 1 ml of ice-cold 7% trichloroacetic acid. Extraction of acid-soluble nucleotides and determinations of ATP levels by luminometry followed procedures discussed hereinabove. Levels of [^3 H]ATP in whole blood, RBCs, plasma, or RBCs incubation media (Hanks' BSS) are determined after incorporation of 250 μCi of [^3 H]adenosine of specific radioactivity of 30 Ci/mmol (1 Ci=3.7×10^10 becquerels) into whole blood or RBC suspensions (250 μl total) followed by immediate trichloroacetic acid extractions as described above. Two dimensional thin layer chromatography on poly(ethylene)imine cellulose with an unlabeled ATP carrier is performed according to Bochner and Ames, J. Biol. Chem., 257, pp. 9759-9769, 1982). For the determination of whole blood or isolated RBC [^3 H]ATP pools, 10 μl of a 1 ml initial trichloroacetic acid extract are chromatographed. Determinations of [^3 H]ATP levels in blood plasma or RBCs incubation media are performed on 300 μl of an initial 1 ml trichloroacetic acid extract which are lyophilized and redissolved in 15 μl of water. After chromatography, the spots corresponding to the ATP carrier are cut, eluted with 0.5 ml of 4 N ammonium hydroxide, and radioactivity determined in 10 ml of scintillation fluid.
Single intraperitoneal injections of 2 ml of 35 mM of AMP or ATP in saline at pH 6.2 into CB6F1 mice result in expansions of RBC ATP pools in these mice (see Table 4).
The expansions of RBC ATP pools after i.p. injections of AMP or ATP could be detected 30 minutes after injections and lasted for approximately 6-8 hours after the nucleotides were completely adsorbed across the peritoneal membrane and into the systemic circulation. The rates of adsorption of intraperitoneal AMP or ATP solutions varied in different strains of mice. […] These plasma ATP levels originate in RBCs since they can be metabolically labeled by [^3 H]adenosine. Plasma ATP pools which originate in the dense granules of blood platelets would not be radioactively labeled under the same conditions (e.g., Holmsen, 1985, Seminars in Hematol, 22, 219-240). The experiments described in Tables 4 and 5 include uptake of [^3 H]adenosine by whole blood (Table 4) or isolated washed RBCs (Table 5 below). In both cases, all the extracellular ATP, determined seconds after the uptake of [^3 H]adenosine, is metabolically labeled.

The nature of data set [3]: Inhibition of host weight loss (cancer cachexia) in CT26 tumor-bearing mice. It counts as in vivo, mouse. Particulars: FIG. 3; treatment initiated day 1 (A), day 5 (B) or day 9 (C). As to the method: A further series of tests are conducted whereby tumors are inoculated by injections of 2.5×10^5 CT26 cells (over 90% viability) in 50 μl of phosphate-buffered saline into the right hind footpad of CB6F1 mice. The treatments were initiated at a variety of times after inoculation of the tumors. The injection schedules started either 1 or 5 days after tumor inoculation when none of the tumors are palpable or when the tumors are clearly palpable (average calculated weight of 100 mg), which occur in 100% of the inoculated mice after 8-11 days. Mice are randomized, divided into groups, and injected daily with 2.2 ml of saline, adenosine, AMP, or ATP (compounds are in sterile saline solutions at concentrations of 25 mM with AMP and ATP solutions adjusted to pH 6.2). Injections are administered intraperitoneally with 30 gauge needles and the mice are lightly anesthetized with […]. The mice are weighed and tumor sizes measured before the start of the treatment schedule and every three days during and after the treatment schedule. These determinations are performed before injections during the treatment period.
In particular, see FIG. 2. FIG. 2 illustrates inhibition of tumor growth (---) and host weight loss (-) in tumor-bearing mice by treatment with adenine nucleotides. Mice (CB6F1, 8 week old males) bearing palpable CT26 footpad tumors (on day 9 after tumor inoculation) are treated with saline (.smallcircle.), adenosine (o), AMP (Δ), or ATP (.quadrature.) as described herein. An untreated group is also included (x). Arrows indicate days of injection.
FIG. 3 further illustrates inhibition of host weight loss in tumor-bearing animals by treatment with adenine nucleotides. Mice (CB6F1, males, 7 weeks old, in A, 10 weeks old in B, C) are inoculated with CT26 tumors and daily treatments (for 10 consecutive days) with saline (.smallcircle.), adenosine (o), AMP (Δ), or ATP (.quadrature.) are initiated 1 day (A), 5 days (B), or 9 days after tumor inoculation (when all the tumors were palpable) (C). Arrows indicate days of injection. Experimental procedures were outlined in the text.

Data set [4] concerns RBC ATP pools. The experiment in a line: RBC ATP pools after in vitro incubation of whole mouse blood with 1 mM compound (Table 6). It counts as cell-based. Particulars: for RBC ATP pools (after 30 min incubations in heparinized mouse blood): 1 mM compound, bioluminometry. As to the method:
^+ RBC ATP pools were determined in isolated washed RBCs after
incubations of whole blood with 1 mM of the specified compound by
bioluminometry. Data represent means ± S.D. of three separate

Setting [5] is: CB6F1, 1 hour after i.p. 1 ml of 50 mM.
[6] abbreviates: CB6F1, 5 hours after i.p. 1 ml of 50 mM.
Setting [7] is: athymic nu/nu, 1 hour after i.p. 1 ml of 50 mM.
Where [8] appears, read: athymic nu/nu, 4 hours after i.p. 1 ml of 50 mM.

In the case of `Nc1ncnc2c1ncn2[C@@H]1O[C@H](COP(=O)(O)O)[C@@H](O)[C@H]1O` [AMP, adenosine 5'-monophosphate], in data set [1] (setting [5]), the “Plasma ATP levels” value was found to be 1.75 ± 0.36 µM and the “Blood ATP levels” value came to 1.23 ± 0.21 mM. Also, in data set [1] (setting [6]), the “Plasma ATP levels” value turned out to be 1.69 ± 0.19 µM and the “Blood ATP levels” value came to 1.36 ± 0.24 mM. Moreover, in data set [1] (setting [7]), the “Plasma ATP levels” value came out at 2.17 ± 0.36 µM and the “Blood ATP levels” value turned out to be 1.87 ± 0.46 mM. In data set [1] (setting [8]), the “Plasma ATP levels” value worked out at 1.97 ± 0.41 µM and the “Blood ATP levels” value was found to be 2.35 ± 0.67 mM. Besides, in data set [2], the “Plasma ATP levels” value turned out to be 3.10 ± 0.96 µM, the “RBC ATP pools” value was 1.78 ± 0.32 mM, the “Plasma [^3 ]ATP levels immediately after [^3 H]adenosine incorporation into whole blood” value came out at 2.86 ± 1.06 µM and the “Duration of expansion of RBC ATP pools” value was in the range of 6 to 8 h. For the same compound, in data set [2], the “Time at which expansion of RBC ATP pools could be detected” value was determined as 30 min, the “Increase in plasma (extracellular) ATP levels (in words)” value is on record as “markedly increased; also recorded: several fold increases in plasma (extracellular) ATP levels” and the “Expansion of RBC ATP pools (in words)” value is recorded as “yielded expansions of red blood cell (RBC) ATP pools”. Moreover, the “Deaths before stated day after tumor inoculation” value in data set [3] was “No deaths occurred before day 19 (A) or day 25 (B,C)”. Further, in data set [4], the “Increase in RBC ATP pools after in vitro treatment of whole mouse blood (in words)” value was “marginal increases in RBC ATP pools” and the “RBC ATP pools (after 30 min incubations in heparinized mouse blood)” value turned out to be 0.73 ± 0.10 µM.
For the compound `Nc1ncnc2c1ncn2[C@@H]1O[C@H](COP(=O)(O)OP(=O)(O)OP(=O)(O)O)[C@@H](O)[C@H]1O` [ATP, adenosine 5'-triphosphate], in data set [1] (setting [5]), the “Plasma ATP levels” value stood at 3.99 ± 0.81 µM and the “Blood ATP levels” value is 2.53 ± 0.61 mM. Besides, in data set [1] (setting [6]), the “Plasma ATP levels” value came to 5.14 ± 0.71 µM and the “Blood ATP levels” value was found to be 3.47 ± 0.57 mM. In data set [1] (setting [7]), the “Plasma ATP levels” value came to 2.93 ± 0.69 µM and the “Blood ATP levels” value is listed as 2.71 ± 0.54 mM. For the same compound, in data set [1] (setting [8]), the “Plasma ATP levels” value was determined as 3.01 ± 0.76 µM and the “Blood ATP levels” value is recorded as 4.26 ± 0.79 mM. Besides, in data set [2], the “Plasma ATP levels” value was 4.94 ± 1.17 µM, the “RBC ATP pools” value was found to be 2.49 ± 0.42 mM, the “Plasma [^3 ]ATP levels immediately after [^3 H]adenosine incorporation into whole blood” value was 5.75 ± 2.05 µM and the “Duration of expansion of RBC ATP pools” value is 6 to 8 h. In data set [2], the “Time at which expansion of RBC ATP pools could be detected” value is 30 min, the “Increase in plasma (extracellular) ATP levels (in words)” value is given as “markedly increased; also recorded: several fold increases in plasma (extracellular) ATP levels” and the “Expansion of RBC ATP pools (in words)” value is listed as “yielded expansions of red blood cell (RBC) ATP pools”. In addition, the “Deaths before stated day after tumor inoculation” value in data set [3] was “No deaths occurred before day 19 (A) or day 25 (B,C)”. Besides, in data set [4], the “Increase in RBC ATP pools after in vitro treatment of whole mouse blood (in words)” value was “marginal increases in RBC ATP pools” and the “RBC ATP pools (after 30 min incubations in heparinized mouse blood)” value came out at 0.76 ± 0.05 µM.
